{"source": "patent US20260144769A1", "about": "“4-PHENYLBUTYRATE RESTORED GABA UPTAKE AND REDUCED SEIZURES IN SLC6A1 VARIANT-MEDIATED DISORDERS” (Vanderbilt University, priority 2022, published 2026)", "key": {"[1]": {"target": "T1, GAT-1 (Rattus norvegicus, UniProt P23978)", "T1 construct": "EYFP (N); expressed in transfected cells; host or cells: HEK (HEK293T) cells", "assay": "3H GABA uptake, HEK cells transfected with GAT-1 cDNA with or without PBA (dual therapy)", "assay_type": "cell-based", "method": "In cell models, HEK293T cells were transfected with SLC6A1, SLC6A1(A288V) or SLC6A1(S295L) cDNAs. The live cells were then fluxed and evaluated for GABA uptake with a 3H radiolabeling GABA uptake assay. In order to evaluate gene expression and protein trafficking, total protein from cell lysates were subjected to SDS-PAGE and immunoblotted for GAT-1 and GFP. Gene expression was evaluated at a variety of gene therapy dosages."}, "[2]": {"target": "T2, wildtype GAT-1 (Rattus norvegicus, UniProt P23978)", "T2 construct": "The coding region of rGAT-1 was inserted into pEYFP-C1 (Clontech, Palo Alto, CA); expressed in transfected cells; host or cells: HEK293T cells (A1); astrocytes from corrected human iPSCs (A21)", "assay": "3H GABA uptake, HEK293T cells expressing wildtype GAT-1^YFP", "assay_type": "cell-based", "details": "for GABA uptake activity vs. wildtype 0: HEK293T, wildtype GAT-1^YFP, normalized to DMSO treated", "method": "GABA uptake activity was measured by the high-throughput 3H radio-labeling GABA uptake on a liquid scintillator with QuantaSmart. […] HEK293T cells were transfected with the wildtype or the mutant GAT-1^YFP cDNAs alone for 48 hr. […] HEK293T cells were transfected with the wildtype GAT-1^YFP alone or in mixture of the wildtype or the mutant cDNAs for 48 hr. In the mixed condition, the ratio of the wildtype GAT-1 with pcDNA or the mutant cDNAs are 1:1 with the total cDNA amount of 0.5 μg. […] Both wt and the mutant were normalized to its own DMSO treated conditions. 966 stands for the wildtype treated with CI-966 (50 μM) while 711 stands for NNC-711 (35 μM). (N=4-7 different transfections. In FIG. 4A and FIG. 4B, *P<0.05, **P<0.01, ***p<0.001 vs. wt 0. In FIG. C and FIG. 4D, *P<0.05, **P<0.01, ***p<0.001 vs. its own DMSO treated. In FIG. 4C, ns stands for no significance. One-way analysis of variance (ANOVA) and Newman-Keuls test. Values were expressed as mean±S.E.M.\nThe plasmid cDNA encoding enhanced yellow fluorescent protein (EYFP)-tagged rat GAT-1 has been previously described. The coding region of rGAT-1 was inserted into pEYFP-C1 (Clontech, Palo Alto, CA). QuikChange Site-directed Mutagenesis kit was utilized to introduce the GAT-1 variants into a wildtype GAT-1 plasmid. The product was then amplified via polymerase chain reaction, transformed using DH5a competent cells, and plated. A clone was chosen and grown overnight. All the GAT-1 variants were confirmed by DNA sequencing. Both the wildtype and the variant cDNAs were prepared with Qiagen Maxiprep kit.\nHuman embryonic kidney cells were cultured as monolayers in 100 mm^2 dishes. Cells were cultured in Dulbecco's Modified Eagle's Medium supplemented with 10% FBS and 1% penicillin/streptomycin in 37° C. in 5% CO2/95% air. Cells were maintained in culture medium until appropriate confluency for experimentation.\nBriefly, cells were cultured in […] dishes for 3 days before the GABA uptake experiment in DMEM with 10% fetal bovine serum and 1% penicillin/streptomycin. The cells were then transfected with equal amounts of the wildtype or the mutant GAT-1 cDNAs (1 μg) for each condition at 24 hrs or 48 hrs after plating. GABA uptake assay was carried out 48 hrs after transfection. The cells were incubated with preincubation solution for 15 min and then incubated with preincubation solution containing 1 μci/mL 3H GABA and 10 μM unlabeled GABA for 30 min at room temperature. After washing, the cells were lysed with 0.25 N NaOH for 1 hr. Glacial acetic acid was added, and lysates were then determined on a liquid scintillator with QuantaSmart. The flux of GABA (pmol/μg/min) was averaged with at least triplets for each condition at each transfection. The average counting was taken as n=1. […]"}}}
{"smiles": "O=C(O)CCCc1ccccc1", "note": "[PBA, 4-phenylbutyric acid]", "values": [{"measurement": "GABA uptake, combined cDNA/PBA treatment vs. cDNA alone", "setting": "[1]; 0.25 μg GAT-1 cDNA + 2 mM PBA vs. 0.5 μg GAT-1 cDNA alone", "value": "No significant difference"}, {"measurement": "GABA uptake function, dual therapy vs. cDNA treatment alone", "setting": "[1]; equal cDNA amount with PBA, variety of cDNA doses in HEK cells", "value": "greater GABA uptake function at all but one dose size"}, {"measurement": "GABA uptake activity vs. wildtype 0", "setting": "[2]; PBA 4 mM as printed", "value": "1.24±0.09"}, {"measurement": "GABA uptake activity vs. wildtype 0", "setting": "[2]; PBA for 24 hrs", "value": "1.24±0.05"}, {"measurement": "GABA uptake activity, concentration and time dependence", "setting": "[2]; PBA 0 to 4 mM, 0 to 48 hrs", "value": "concentration and time dependently increased"}, {"measurement": "cell loss", "setting": "[2]; cells treated with PBA at 4 mM and/or 48 hrs", "value": "occasional cell loss"}]}
